Measured values: paper PMC6402034 (Biochemical Journal, 2019)

How the values were obtained:
[1] = target: T1, ALA2 (aminophospholipid ATPase 2) (Arabidopsis thaliana, UniProt P98205); assay: lipid-stimulated ATPase activity of purified complex; format: biochemical
T1 sequence (P98205 1-1107): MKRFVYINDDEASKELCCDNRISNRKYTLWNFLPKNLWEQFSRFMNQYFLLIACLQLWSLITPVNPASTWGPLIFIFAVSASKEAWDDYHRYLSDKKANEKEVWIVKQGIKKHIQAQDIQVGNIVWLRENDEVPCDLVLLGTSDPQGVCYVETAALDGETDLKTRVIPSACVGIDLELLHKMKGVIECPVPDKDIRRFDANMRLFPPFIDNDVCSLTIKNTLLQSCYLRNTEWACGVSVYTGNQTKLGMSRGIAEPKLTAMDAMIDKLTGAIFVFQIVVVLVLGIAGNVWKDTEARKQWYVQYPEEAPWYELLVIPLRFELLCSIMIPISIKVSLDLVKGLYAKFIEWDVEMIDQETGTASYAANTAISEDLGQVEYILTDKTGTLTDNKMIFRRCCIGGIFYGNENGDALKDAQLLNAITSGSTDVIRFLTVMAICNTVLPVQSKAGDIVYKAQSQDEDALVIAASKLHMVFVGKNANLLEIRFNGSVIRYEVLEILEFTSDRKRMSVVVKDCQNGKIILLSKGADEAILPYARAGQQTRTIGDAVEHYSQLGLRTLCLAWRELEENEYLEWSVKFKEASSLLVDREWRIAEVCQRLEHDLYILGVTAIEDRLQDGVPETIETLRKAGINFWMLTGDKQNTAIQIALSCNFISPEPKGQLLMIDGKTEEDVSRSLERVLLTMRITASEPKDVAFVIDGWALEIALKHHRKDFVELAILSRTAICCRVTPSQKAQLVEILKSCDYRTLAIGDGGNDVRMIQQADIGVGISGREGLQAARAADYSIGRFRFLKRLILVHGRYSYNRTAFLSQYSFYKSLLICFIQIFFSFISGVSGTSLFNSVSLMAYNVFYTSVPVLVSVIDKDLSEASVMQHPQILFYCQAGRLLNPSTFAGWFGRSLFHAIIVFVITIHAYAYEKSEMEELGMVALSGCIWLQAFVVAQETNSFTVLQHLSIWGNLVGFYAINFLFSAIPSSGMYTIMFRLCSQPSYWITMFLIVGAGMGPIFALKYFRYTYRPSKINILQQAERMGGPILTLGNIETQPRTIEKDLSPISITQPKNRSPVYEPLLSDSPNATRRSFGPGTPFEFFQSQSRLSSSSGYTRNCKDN
T1 sequence (Q8L8W0 2-350 partner): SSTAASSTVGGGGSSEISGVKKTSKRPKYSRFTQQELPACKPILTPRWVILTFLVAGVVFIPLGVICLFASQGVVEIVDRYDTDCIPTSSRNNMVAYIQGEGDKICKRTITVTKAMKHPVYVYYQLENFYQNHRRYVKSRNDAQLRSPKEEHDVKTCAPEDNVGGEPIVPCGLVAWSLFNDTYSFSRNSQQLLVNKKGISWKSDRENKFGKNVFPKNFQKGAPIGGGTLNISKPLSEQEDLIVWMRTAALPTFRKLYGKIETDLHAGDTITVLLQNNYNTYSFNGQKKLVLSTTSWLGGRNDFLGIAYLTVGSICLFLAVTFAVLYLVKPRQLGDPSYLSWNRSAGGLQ

[2] = target: T1, ALA2 (aminophospholipid ATPase 2)
[3] = target: T1, ALA2 (aminophospholipid ATPase 2); assay: lipid-stimulated ATPase activity of purified complex; format: biochemical; remark: listed apart in the source

CCCCCCCCCCCCCCCC(=O)OC[C@@H](O)COP(=O)(O)OC[C@H](N)C(=O)O [Lyso-PS, 1-hexadecanoyl-sn-glycero-3-phospho-L-serine]
EC50 [1]: 34 ± 7 µM

[O]=[V]([OH])([OH])[OH] [orthovanadate]
IC50 [2]: ~22 µM

CCCCCCCC/C=C\CCCCCCCC(=O)O[C@H](COC(=O)CCCCCCCCCCCCCCC)COP(=O)(O)OC[C@@H](N)C(=O)O [P-D-S, 1-palmitoyl-2-oleoyl-sn-glycero-3-phospho-D-serine]
lipid-stimulated ATPase activity of purified complex [3]: The stereoisomer phosphatidyl-D-serine (P-D-S) was less than half as effective at stimulating ATPase activity compared with PS
